Test results as given in patent publication US8809265B2, “Methods for treating HCV” (AbbVie Inc., priority 2011, dated 2014).

Experiment: bioequivalence of solid formulations of Compound 2
Type: in vivo
Details: 250 mg in improved solid formulation (increased binder, e.g. copovidone) versus 400 mg in original formulation
Description: Accordingly, in one aspect, the present technology features a method of treating HCV infection, comprising administering to a patient in need thereof an effective amount of a combination of two or more DAAs. […] The DAAs can be administered at the same or different dosing frequencies. The patient being treated can be a treatment naïve patient, a treatment experienced patient, including, but not limited to, a relapser, an interferon partial responder, or an interferon non-responder; or a patient unable to take interferon. The patient may be infected with, for example and without limitation, HCV genotype 1, such as HCV genotype 1a or HCV genotype 1b; or HCV genotype 2 or 3. The treatment according to this aspect of the technology may also be effective against other HCV genotypes. The DAAs can be administered around the same time or at different times, and can be co-formulated in a single formulation or formulated in different compositions. Each DAA can be selected from HCV protease inhibitors, HCV polymerase inhibitors, or HCV NS5A inhibitors. […]

## COc1c(-c2ccc3cc(NS(C)(=O)=O)ccc3c2)cc(-n2ccc(=O)[nH]c2=O)cc1C(C)(C)C [Compound 2, N-(6-(3-tert-butyl-5-(2,4-dioxo-3,4-dihydropyrimidin-1(2H)-yl)-2-methoxyphenyl)naphthalen-2-yl)methanesulfonamide]
  bioequivalence of formulations: bioequivalent
